{"source": "ChEMBL document CHEMBL1144287", "about": "“Synthesis and antifungal activity of noble 5-arylamino- and 6-arylthio-4,7-dioxobenzoselenazoles” (2005)", "assay_type_in_all_cases": "functional", "key": {"Candida tropicalis": {"tested_on": "Candida tropicalis", "experiment": "Minimum inhibitory concentration was measured against Candida tropicalis ATCC 28775 using modified Sabouraud dextrose broth; (a)"}, "Aspergillus niger": {"tested_on": "Aspergillus niger", "experiment": "Minimum inhibitory concentration was measured against Aspergillus niger KCTC 1231 using modified Sabouraud dextrose broth; (a)"}, "Aspergillus flavus": {"tested_on": "Aspergillus flavus", "experiment": "Minimum inhibitory concentration was measured against Aspergillus flavus KCCM 11899 using modified Sabouraud dextrose broth; (a)"}, "Pichia kudriavzevii": {"tested_on": "Pichia kudriavzevii", "experiment": "Minimum inhibitory concentration was measured against Candida krusei ATCC 749 using modified Sabouraud dextrose broth; (a)"}, "Candida albicans": {"tested_on": "Candida albicans", "experiment": "Minimum inhibitory concentration was measured against Candida albicans ATCC 10231 using modified Sabouraud dextrose broth; (a)"}}}
{"smiles": "Cc1nc2c([se]1)C(=O)C=C(Nc1ccc(F)cc1)C2=O", "values": [{"measurement": "MIC", "setting": "Candida tropicalis", "result": 6.3, "unit": "µg/mL"}, {"measurement": "MIC", "setting": "Aspergillus niger", "result": 6.3, "unit": "µg/mL"}, {"measurement": "MIC", "setting": "Aspergillus flavus", "result": 12.5, "unit": "µg/mL"}, {"measurement": "MIC", "setting": "Pichia kudriavzevii", "result": 6.3, "unit": "µg/mL"}, {"measurement": "MIC", "setting": "Candida albicans", "result": 6.3, "unit": "µg/mL"}]}
{"smiles": "Cc1nc2c([se]1)C(=O)C=C(Nc1ccc(Cl)cc1)C2=O", "values": [{"measurement": "MIC", "setting": "Candida tropicalis", "result": 12.5, "unit": "µg/mL"}, {"measurement": "MIC", "setting": "Aspergillus niger", "result": 12.5, "unit": "µg/mL"}, {"measurement": "MIC", "setting": "Aspergillus flavus", "result": 12.5, "unit": "µg/mL"}, {"measurement": "MIC", "setting": "Pichia kudriavzevii", "result": 12.5, "unit": "µg/mL"}, {"measurement": "MIC", "setting": "Candida albicans", "result": 12.5, "unit": "µg/mL"}]}
{"smiles": "Cc1nc2c([se]1)C(=O)C=C(Nc1ccc(Br)cc1)C2=O", "values": [{"measurement": "MIC", "setting": "Candida tropicalis", "result": 50, "unit": "µg/mL"}, {"measurement": "MIC", "setting": "Aspergillus niger", "result": 25, "unit": "µg/mL"}, {"measurement": "MIC", "setting": "Aspergillus flavus", "result": 50, "unit": "µg/mL"}, {"measurement": "MIC", "setting": "Pichia kudriavzevii", "result": 50, "unit": "µg/mL"}, {"measurement": "MIC", "setting": "Candida albicans", "result": 12.5, "unit": "µg/mL"}]}
{"smiles": "COC1=C(Sc2ccc(C)cc2)C(=O)c2[se]c(C)nc2C1=O", "values": [{"measurement": "MIC", "setting": "Candida tropicalis", "result": 6.3, "unit": "µg/mL"}, {"measurement": "MIC", "setting": "Aspergillus niger", "result": 25, "unit": "µg/mL"}, {"measurement": "MIC", "setting": "Aspergillus flavus", "result": 50, "unit": "µg/mL"}, {"measurement": "MIC", "setting": "Pichia kudriavzevii", "result": 25, "unit": "µg/mL"}, {"measurement": "MIC", "setting": "Candida albicans", "result": 12.5, "unit": "µg/mL"}]}
{"smiles": "COC1=C(Sc2ccc(Cl)cc2)C(=O)c2[se]c(C)nc2C1=O", "values": [{"measurement": "MIC", "setting": "Candida tropicalis", "result": 12.5, "unit": "µg/mL"}, {"measurement": "MIC", "setting": "Aspergillus niger", "result": 25, "unit": "µg/mL"}, {"measurement": "MIC", "setting": "Aspergillus flavus", "result": 25, "unit": "µg/mL"}, {"measurement": "MIC", "setting": "Pichia kudriavzevii", "result": 25, "unit": "µg/mL"}, {"measurement": "MIC", "setting": "Candida albicans", "result": 25, "unit": "µg/mL"}]}
{"smiles": "Cc1nc2c([se]1)C(=O)C=C(Nc1ccc(I)cc1)C2=O", "values": [{"measurement": "MIC", "setting": "Candida tropicalis", "result": 25, "unit": "µg/mL"}, {"measurement": "MIC", "setting": "Aspergillus niger", "result": 25, "unit": "µg/mL"}, {"measurement": "MIC", "setting": "Aspergillus flavus", "result": 25, "unit": "µg/mL"}, {"measurement": "MIC", "setting": "Pichia kudriavzevii", "result": 25, "unit": "µg/mL"}, {"measurement": "MIC", "setting": "Candida albicans", "result": 25, "unit": "µg/mL"}]}
{"smiles": "Cc1nc2c([se]1)C(=O)C=C(Nc1cc(Cl)cc(Cl)c1)C2=O", "values": [{"measurement": "MIC", "setting": "Candida tropicalis", "result": 3.2, "unit": "µg/mL"}, {"measurement": "MIC", "setting": "Aspergillus niger", "result": 12.5, "unit": "µg/mL"}, {"measurement": "MIC", "setting": "Aspergillus flavus", "result": 12.5, "unit": "µg/mL"}, {"measurement": "MIC", "setting": "Pichia kudriavzevii", "result": 25, "unit": "µg/mL"}, {"measurement": "MIC", "setting": "Candida albicans", "result": 1.6, "unit": "µg/mL"}]}
{"smiles": "Cc1nc2c([se]1)C(=O)C=C(Nc1ccc(C(F)(F)F)cc1)C2=O", "values": [{"measurement": "MIC", "setting": "Candida tropicalis", "result": 3.2, "unit": "µg/mL"}, {"measurement": "MIC", "setting": "Aspergillus niger", "result": 12.5, "unit": "µg/mL"}, {"measurement": "MIC", "setting": "Aspergillus flavus", "result": 25, "unit": "µg/mL"}, {"measurement": "MIC", "setting": "Pichia kudriavzevii", "result": 3.2, "unit": "µg/mL"}, {"measurement": "MIC", "setting": "Candida albicans", "result": 25, "unit": "µg/mL"}]}
{"smiles": "COC1=C(Sc2ccc([N+](=O)[O-])cc2)C(=O)c2[se]c(C)nc2C1=O", "values": [{"measurement": "MIC", "setting": "Candida tropicalis", "result": 1.6, "unit": "µg/mL"}, {"measurement": "MIC", "setting": "Aspergillus niger", "result": 50, "unit": "µg/mL"}, {"measurement": "MIC", "setting": "Aspergillus flavus", "result": 12.5, "unit": "µg/mL"}, {"measurement": "MIC", "setting": "Pichia kudriavzevii", "result": 25, "unit": "µg/mL"}, {"measurement": "MIC", "setting": "Candida albicans", "result": 3.2, "unit": "µg/mL"}]}
{"smiles": "COc1ccc(NC2=CC(=O)c3[se]c(C)nc3C2=O)cc1", "values": [{"measurement": "MIC", "setting": "Candida tropicalis", "result": 12.5, "unit": "µg/mL"}, {"measurement": "MIC", "setting": "Aspergillus niger", "result": 12.5, "unit": "µg/mL"}, {"measurement": "MIC", "setting": "Aspergillus flavus", "result": 12.5, "unit": "µg/mL"}, {"measurement": "MIC", "setting": "Pichia kudriavzevii", "result": 12.5, "unit": "µg/mL"}, {"measurement": "MIC", "setting": "Candida albicans", "result": 12.5, "unit": "µg/mL"}]}
{"smiles": "Cc1nc2c([se]1)C(=O)C=C(Nc1ccccc1)C2=O", "values": [{"measurement": "MIC", "setting": "Candida tropicalis", "result": 6.3, "unit": "µg/mL"}, {"measurement": "MIC", "setting": "Aspergillus niger", "result": 6.3, "unit": "µg/mL"}, {"measurement": "MIC", "setting": "Aspergillus flavus", "result": 6.3, "unit": "µg/mL"}, {"measurement": "MIC", "setting": "Pichia kudriavzevii", "result": 6.3, "unit": "µg/mL"}, {"measurement": "MIC", "setting": "Candida albicans", "result": 6.3, "unit": "µg/mL"}]}
{"smiles": "COC1=C(Sc2ccc(F)cc2)C(=O)c2[se]c(C)nc2C1=O", "values": [{"measurement": "MIC", "setting": "Candida tropicalis", "result": 3.2, "unit": "µg/mL"}, {"measurement": "MIC", "setting": "Aspergillus niger", "result": 50, "unit": "µg/mL"}, {"measurement": "MIC", "setting": "Aspergillus flavus", "result": 50, "unit": "µg/mL"}, {"measurement": "MIC", "setting": "Pichia kudriavzevii", "result": 25, "unit": "µg/mL"}, {"measurement": "MIC", "setting": "Candida albicans", "result": 25, "unit": "µg/mL"}]}
{"smiles": "COC1=C(Sc2ccc(OC)cc2)C(=O)c2[se]c(C)nc2C1=O", "values": [{"measurement": "MIC", "setting": "Candida tropicalis", "result": 12.5, "unit": "µg/mL"}, {"measurement": "MIC", "setting": "Aspergillus niger", "result": 12.5, "unit": "µg/mL"}, {"measurement": "MIC", "setting": "Aspergillus flavus", "result": 25, "unit": "µg/mL"}, {"measurement": "MIC", "setting": "Pichia kudriavzevii", "result": 12.5, "unit": "µg/mL"}, {"measurement": "MIC", "setting": "Candida albicans", "result": 25, "unit": "µg/mL"}]}
{"smiles": "COC1=CC(=O)c2[se]c(C)nc2C1=O", "values": [{"measurement": "MIC", "setting": "Candida tropicalis", "result": 12.5, "unit": "µg/mL"}, {"measurement": "MIC", "setting": "Aspergillus niger", "result": 25, "unit": "µg/mL"}, {"measurement": "MIC", "setting": "Aspergillus flavus", "result": 50, "unit": "µg/mL"}, {"measurement": "MIC", "setting": "Pichia kudriavzevii", "result": 25, "unit": "µg/mL"}, {"measurement": "MIC", "setting": "Candida albicans", "result": 50, "unit": "µg/mL"}]}
{"smiles": "COC1=C(Sc2ccc(F)c(F)c2)C(=O)c2[se]c(C)nc2C1=O", "values": [{"measurement": "MIC", "setting": "Candida tropicalis", "result": 6.3, "unit": "µg/mL"}, {"measurement": "MIC", "setting": "Aspergillus niger", "result": 25, "unit": "µg/mL"}, {"measurement": "MIC", "setting": "Aspergillus flavus", "result": 25, "unit": "µg/mL"}, {"measurement": "MIC", "setting": "Pichia kudriavzevii", "result": 6.3, "unit": "µg/mL"}, {"measurement": "MIC", "setting": "Candida albicans", "result": 12.5, "unit": "µg/mL"}]}
{"smiles": "Cc1nc2c([se]1)C(=O)C=C(Nc1cccc(F)c1)C2=O", "values": [{"measurement": "MIC", "setting": "Candida tropicalis", "result": 3.2, "unit": "µg/mL"}, {"measurement": "MIC", "setting": "Aspergillus niger", "result": 12.5, "unit": "µg/mL"}, {"measurement": "MIC", "setting": "Aspergillus flavus", "result": 12.5, "unit": "µg/mL"}, {"measurement": "MIC", "setting": "Pichia kudriavzevii", "result": 6.3, "unit": "µg/mL"}, {"measurement": "MIC", "setting": "Candida albicans", "result": 12.5, "unit": "µg/mL"}]}
{"smiles": "COC1=C(Sc2ccccc2)C(=O)c2[se]c(C)nc2C1=O", "values": [{"measurement": "MIC", "setting": "Candida tropicalis", "result": 6.3, "unit": "µg/mL"}, {"measurement": "MIC", "setting": "Aspergillus niger", "result": 12.5, "unit": "µg/mL"}, {"measurement": "MIC", "setting": "Aspergillus flavus", "result": 12.5, "unit": "µg/mL"}, {"measurement": "MIC", "setting": "Pichia kudriavzevii", "result": 6.3, "unit": "µg/mL"}, {"measurement": "MIC", "setting": "Candida albicans", "result": 6.3, "unit": "µg/mL"}]}
{"smiles": "Cc1ccc(NC2=CC(=O)c3[se]c(C)nc3C2=O)cc1", "values": [{"measurement": "MIC", "setting": "Candida tropicalis", "result": 25, "unit": "µg/mL"}, {"measurement": "MIC", "setting": "Aspergillus niger", "result": 6.3, "unit": "µg/mL"}, {"measurement": "MIC", "setting": "Aspergillus flavus", "result": 12.5, "unit": "µg/mL"}, {"measurement": "MIC", "setting": "Pichia kudriavzevii", "result": 25, "unit": "µg/mL"}, {"measurement": "MIC", "setting": "Candida albicans", "result": 6.3, "unit": "µg/mL"}]}
{"smiles": "Nc1nc(=O)[nH]cc1F", "note": "[FLUCYTOSINE]", "values": [{"measurement": "MIC", "setting": "Candida tropicalis", "result": 12.5, "unit": "µg/mL"}, {"measurement": "MIC", "setting": "Aspergillus niger", "result": 12.5, "unit": "µg/mL"}, {"measurement": "MIC", "setting": "Aspergillus flavus", "result": 50, "unit": "µg/mL"}, {"measurement": "MIC", "setting": "Pichia kudriavzevii", "result": 50, "unit": "µg/mL"}, {"measurement": "MIC", "setting": "Candida albicans", "result": 12.5, "unit": "µg/mL"}]}
